The values below come from PMC5908784, “Extracellular loops 2 and 3 of the calcitonin receptor selectively modify agonist binding and efficacy” (Biochemical Pharmacology, 2018).

SMILES strings stand for the structures. Positions count from the first letter of the chain named. Where a SMILES comes first, the peptide text is derived from it. Bridges are numbered along the chain shown (N, C = ends).

The term Emax denotes the greatest response seen or fitted, relative to the assay's reference. What is called EC50 is the concentration giving half of the maximal effect. Lower therefore signals a more potent agent.

Holding throughout (experiment): IP1 accumulation
What all share (assay type): cell-based
Details in all cases: mean ± S.E.M.; for Emax: IP1 maximal response, SEM

For test [1], the target named is T1, hCTR Y284A (Homo sapiens, UniProt P30988, Y284A).
T1 construct: expressed in transfected cells
T1 sequence (P30988 25-474 Y284A): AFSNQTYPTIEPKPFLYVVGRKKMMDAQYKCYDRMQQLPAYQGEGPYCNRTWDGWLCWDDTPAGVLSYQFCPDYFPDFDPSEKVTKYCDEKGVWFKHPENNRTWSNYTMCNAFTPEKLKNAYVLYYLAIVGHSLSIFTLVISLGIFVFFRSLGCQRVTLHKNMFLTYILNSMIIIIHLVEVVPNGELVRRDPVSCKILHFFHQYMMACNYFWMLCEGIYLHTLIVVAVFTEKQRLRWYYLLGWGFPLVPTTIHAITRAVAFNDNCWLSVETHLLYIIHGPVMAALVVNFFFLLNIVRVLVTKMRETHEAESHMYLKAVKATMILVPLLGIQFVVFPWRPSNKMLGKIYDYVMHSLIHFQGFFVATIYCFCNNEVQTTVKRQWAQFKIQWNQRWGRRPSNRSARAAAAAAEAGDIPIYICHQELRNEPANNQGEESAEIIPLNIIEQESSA
A digest of the protocol: (§1)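 Cells bearing the mutant calcitonin receptor were plated overnight, then stimulated with increasing ligand concentrations for 60 min in the presence of LiCl. Endogenous IP1 was read by HTRF after lysis.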

Test [2] deals with T2, hCTR F285A (Homo sapiens, UniProt P30988, F285A).
T2 construct: expressed in transfected cells
T2 sequence (P30988 25-474 F285A): T1 sequence (P30988 25-474 Y284A) with A260Y, F261A
A digest of the protocol: as §1

The target of test [3] is T3, hCTR V283A (Homo sapiens, UniProt P30988, V283A).
T3 construct: expressed in transfected cells
T3 sequence (P30988 25-474 V283A): T1 sequence (P30988 25-474 Y284A) with V259A, A260Y
The essentials: as §1

Test [4] has as its target T4, hCTR L297A (Homo sapiens, UniProt P30988, L297A).
T4 construct: c-Myc (N); expressed in transfected cells
T4 sequence (P30988 25-474 L297A): T1 sequence (P30988 25-474 Y284A) with A260Y, L273A
A digest of the protocol: as §1

Test [5] has as its target T5, hCTR V375A (Homo sapiens, UniProt P30988, V375A).
T5 construct: c-Myc (N); expressed in transfected cells
T5 sequence (P30988 25-474 V375A): T1 sequence (P30988 25-474 Y284A) with A260Y, V351A
A digest of the protocol: as §1

The mark [6] stands for this setting: IP1, CV1-FlpIn cells, 60 min, LiCl.

As for `CC[C@H](C)[C@H](NC(=O)[C@H](C)NC(=O)[C@@H](NC(=O)[C@H](CCC(N)=O)NC(=O)[C@@H]1CCCN1C(=O)[C@H](Cc1ccccc1)NC(=O)[C@@H](NC(=O)[C@H](Cc1c[nH]cn1)NC(=O)[C@H](Cc1ccccc1)NC(=O)[C@H](CCCCN)NC(=O)[C@H](CC(N)=O)NC(=O)[C@H](Cc1ccccc1)NC(=O)[C@H](CC(=O)O)NC(=O)[C@H](CCC(N)=O)NC(=O)[C@@H](NC(=O)[C@H](Cc1ccc(O)cc1)NC(=O)[C@@H](NC(=O)CNC(=O)[C@H](CC(C)C)NC(=O)[C@H](CCSC)NC(=O)[C@@H]1CSSC[C@H](N)C(=O)NCC(=O)N[C@@H](CC(N)=O)C(=O)N[C@@H](CC(C)C)C(=O)N[C@@H](CO)C(=O)N[C@@H]([C@@H](C)O)C(=O)N1)[C@@H](C)O)[C@@H](C)O)[C@@H](C)O)[C@@H](C)O)C(=O)NCC(=O)N[C@H](C(=O)NCC(=O)N[C@@H](C)C(=O)N1CCC[C@H]1C(N)=O)C(C)C` [hCT], the maximal effect (Emax) in test [1] worked out at 81 ± 12%; in test [2], 58 ± 6%; in test [3], 67 ± 6%; in test [4] it was 52 ± 5%; in test [5], 104 ± 6%.
As to `CSCC[C@H](NC(=O)CNC(=O)[C@H](CO)NC(=O)[C@H](Cc1ccccc1)NC(=O)[C@H](CCCNC(=N)N)NC(=O)[C@H](Cc1c[nH]cn1)NC(=O)[C@H](Cc1ccccc1)NC(=O)[C@H](CC(N)=O)NC(=O)[C@H](CC(N)=O)NC(=O)[C@H](CC(C)C)NC(=O)[C@H](CC(N)=O)NC(=O)[C@H](CCCNC(=N)N)NC(=O)[C@H](Cc1c[nH]c2ccccc12)NC(=O)[C@H](Cc1ccc(O)cc1)NC(=O)[C@H](C)NC(=O)[C@H](CO)NC(=O)[C@H](CC(C)C)NC(=O)[C@@H](NC(=O)[C@@H]1CSSC[C@H](N)C(=O)N[C@@H](CO)C(=O)N[C@@H](CC(N)=O)C(=O)N[C@@H](CC(C)C)C(=O)N[C@@H](CO)C(=O)N[C@@H]([C@@H](C)O)C(=O)N1)C(C)C)C(=O)NCC(=O)N[C@@H](Cc1ccccc1)C(=O)NCC(=O)N1CCC[C@H]1C(=O)N[C@@H](CCC(=O)O)C(=O)N[C@H](C(=O)N1CCC[C@H]1C(N)=O)[C@@H](C)O` [pCT] (H-CSNLSTCVLSAYWRNLNNFHRFSGMGFGPETP-NH2; disulfide 1-7), the EC50 in test [1] (setting [6]) is 1.15 nM; in test [2] (setting [6]), 5.01 nM; in test [3] (setting [6]) it was 6.17 nM; in test [4] (setting [6]), 2 nM; in test [5] (setting [6]) it was 1.17 nM. Besides, the Emax was determined as 94 ± 6% in test [1]; 112 ± 13% in test [2]; 100 ± 5% in test [3]; 68 ± 5% in test [4]; 100 ± 5% in test [5].
`CC(C)C[C@H](NC(=O)[C@H](CCCCN)NC(=O)CNC(=O)[C@H](CC(C)C)NC(=O)[C@@H](NC(=O)[C@@H]1CSSC[C@H](N)C(=O)N[C@@H](CO)C(=O)N[C@@H](CC(N)=O)C(=O)N[C@@H](CC(C)C)C(=O)N[C@@H](CO)C(=O)N[C@@H]([C@@H](C)O)C(=O)N1)C(C)C)C(=O)N[C@@H](CO)C(=O)N[C@@H](CCC(N)=O)C(=O)N[C@@H](CCC(=O)O)C(=O)N[C@@H](CC(C)C)C(=O)N[C@@H](Cc1c[nH]cn1)C(=O)N[C@@H](CCCCN)C(=O)N[C@@H](CC(C)C)C(=O)N[C@@H](CCC(N)=O)C(=O)N[C@H](C(=O)N[C@@H](Cc1ccc(O)cc1)C(=O)N1CCC[C@H]1C(=O)N[C@@H](CCCNC(=N)N)C(=O)N[C@H](C(=O)N[C@@H](CC(N)=O)C(=O)N[C@H](C(=O)NCC(=O)N[C@@H](CO)C(=O)NCC(=O)N[C@H](C(=O)N1CCC[C@H]1C(N)=O)[C@@H](C)O)[C@@H](C)O)[C@@H](C)O)[C@@H](C)O` [sCT]: the maximal effect (Emax) worked out at 118 ± 7% in test [1]; 114 ± 6% in test [2]; 115 ± 6% in test [3]; 69 ± 7% in test [4]; 87 ± 5% in test [5].
